What was measured:
[1] = Hydrophilic-lipophilic balance (HLB) value; type: physicochemical; settings: calculated as twenty times molecular weight of hydrophilic portion divided by total molecular weight
rabbits = experiment: Cytotoxicity by ocular irritation study (ISO 10993-10); type: in vivo; settings: 0.035% in PBS, ocular irritation study in rabbits (ISO 10993-10)
Source text: An advantage of the surfactants used herein is that they are non-cytotoxic at concentrations effective at reducing surface concentration of silicon, and thus may be left in the final packaged contact lens. In contrast, other methods for reducing surface concentration of silicone of silicone hydrogel contact lenses employ toxic compounds that must be extracted from the contact lens prior to final packaging (see e.g. US Pat. Appin. Publ. No. 2014/0275434). Thus, the prior art method requires additional processing steps in order to provide an ophthalmically-acceptable contact lens, which add to manufacturing costs. Further, there is a desire to minimize the use of hazardous chemicals in manufacturing sites, which is another advantage of the present invention compared to the prior art. In specific examples, the concentration of the surfactant in the packaging solution prior to contact with the contact lens is from about 0.01 wt. % or 0.02 wt. %, up to about 0.05 wt. %, 0.075 wt. %, or 0.1 wt. %. Throughout this disclosure, when a series of lower limit ranges and a series of upper limit ranges are provided, all combinations of the provided ranges are contemplated as if each combination were specifically listed. […]
Because of the low CoF values obtained for both lenses, tyloxapol and RLM-100 were evaluated further for use as a possible packaging solution additive.

Substance: tyloxapol
- HLB value [1]: about 13
- cytotoxicity (rabbits): non-cytotoxic
